Assay results as given in PubChem BioAssay AID330 (DTP/NCI, 2004).
Several values for one entry are separate records, joined by “and”; a condition that tells them apart may be missing. Identical values can stand only once. Toxic doses and inconclusive results are not listed. The calls were made as follows: active = survival T/C of 150% or more; inactive = T/C below 125% in these data.

Test system: P388 leukemia ip, CD2F1 mice, survival T/C
Assay: NCI In Vivo Anticancer Drug Screen. Data for tumor model P388 Leukemia (intraperitoneal) in CD2F1 (CDF1) mice
Conditions: endpoint: median survival time, higher = longer survival
How it was run: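 Mice carrying the transplanted tumor received test compound or vehicle. Survival was recorded in each group, and the value is the treated-group measurement divided by that of the vehicle-treated control group.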

[1] = dose: 6.25 mg/kg/injection, schedule: Q01DX009 (ip), vehicle: saline with Tween-80
[2] = dose: 12.5 mg/kg/injection, schedule: Q01DX009 (ip), vehicle: saline with Tween-80
[3] = dose: 25.0 mg/kg/injection, schedule: Q01DX009 (ip), vehicle: saline with Tween-80
[4] = dose: 100.0 mg/kg/injection, schedule: Q04DX002 (ip), vehicle: saline with Tween-80
[5] = dose: 200.0 mg/kg/injection, schedule: Q04DX002 (ip), vehicle: saline with Tween-80
[6] = dose: 400.0 mg/kg/injection, schedule: Q04DX002 (ip), vehicle: saline with Tween-80
[7] = dose: 100.0 mg/kg/injection, schedule: Q04DX002 (ip), vehicle: saline
[8] = dose: 200.0 mg/kg/injection, schedule: Q04DX002 (ip), vehicle: saline
[9] = dose: 400.0 mg/kg/injection, schedule: Q04DX002 (ip), vehicle: saline
[10] = dose: 50.0 mg/kg/injection, schedule: Q01DX005 (ip), vehicle: Klucel (hydroxypropylcellulose) (HPC)
[11] = dose: 100.0 mg/kg/injection, schedule: Q01DX005 (ip), vehicle: Klucel (hydroxypropylcellulose) (HPC)
[12] = dose: 200.0 mg/kg/injection, schedule: Q01DX005 (ip), vehicle: Klucel (hydroxypropylcellulose) (HPC)
[13] = dose: 100.0 mg/kg/injection, schedule: Q01DX001 (ip), vehicle: saline
[14] = dose: 200.0 mg/kg/injection, schedule: Q01DX001 (ip), vehicle: saline
[15] = dose: 400.0 mg/kg/injection, schedule: Q01DX001 (ip), vehicle: saline
[16] = dose: 50.0 mg/kg/injection, schedule: Q01DX005 (ip), vehicle: saline with Tween-80
[17] = dose: 100.0 mg/kg/injection, schedule: Q01DX005 (ip), vehicle: saline with Tween-80
[18] = dose: 200.0 mg/kg/injection, schedule: Q01DX005 (ip), vehicle: saline with Tween-80
[19] = dose: 50.0 mg/kg/injection, schedule: Q01DX005 (ip), vehicle: saline
[20] = dose: 100.0 mg/kg/injection, schedule: Q01DX005 (ip), vehicle: saline
[21] = dose: 200.0 mg/kg/injection, schedule: Q01DX005 (ip), vehicle: saline

Measured: T/C

CN(C)CCNc1ccccc1[N+](=O)[O-]
inactive: dose: 12.5 mg/kg/injection, schedule: Q01DX001 (ip), vehicle: saline 100 % of control | dose: 25.0 mg/kg/injection, schedule: Q01DX001 (ip), vehicle: saline 100 % of control | dose: 50.0 mg/kg/injection, schedule: Q01DX001 (ip), vehicle: saline 100 % of control

OCc1c(Cl)n(-c2ccccc2)c2ccccc12
inactive: dose: 100.0 mg/kg/injection, schedule: Q04DX002 (ip), vehicle: Klucel (hydroxypropylcellulose) (HPC) 96 % of control | dose: 400.0 mg/kg/injection, schedule: Q04DX002 (ip), vehicle: Klucel (hydroxypropylcellulose) (HPC) 98 % of control

C=C1C[C@]23C[C@@]1(O)CC[C@H]2[C@]12C=C[C@H](O1)C(C(=O)OCC)=C2[C@@H]3O
inactive: dose: 60.0 mg/kg/injection, schedule: Q01DX005 (ip), vehicle: Klucel (hydroxypropylcellulose) (HPC) 108 % of control | dose: 120.0 mg/kg/injection, schedule: Q01DX005 (ip), vehicle: Klucel (hydroxypropylcellulose) (HPC) 115 % of control | dose: 240.0 mg/kg/injection, schedule: Q01DX005 (ip), vehicle: Klucel (hydroxypropylcellulose) (HPC) 120 % of control

CCCC(=O)c1ccco1
inactive: [1] 88 % of control | [2] 95 % of control | [3] 95 % of control

NC(=Nc1ccc(Cl)cc1)N/N=C/c1ccc(Cl)c(Cl)c1
inactive: dose: 25.0 mg/kg/injection, schedule: Q04DX002 (ip), vehicle: saline with Tween-80 103 % of control | dose: 40.0 mg/kg/injection, schedule: Q04DX002 (ip), vehicle: saline with Tween-80 100 % of control | [4] 106 % of control | [5] 107 % of control | [6] 113 % of control

COc1cc2c(c(OC)c1OC)-c1ccc(S(=O)(=O)Cc3ccccc3)c(=O)cc1C(NC(C)=O)CC2 (centres undefined)
inactive: dose: 0.78 mg/kg/injection, schedule: Q01DX009 (ip), vehicle: Klucel (hydroxypropylcellulose) (HPC) 95 % of control | dose: 1.56 mg/kg/injection, schedule: Q01DX009 (ip), vehicle: Klucel (hydroxypropylcellulose) (HPC) 105 % of control and 106 % of control and 117 % of control | dose: 3.12 mg/kg/injection, schedule: Q01DX009 (ip), vehicle: Klucel (hydroxypropylcellulose) (HPC) 100 % of control and 107 % of control and 115 % of control | dose: 6.25 mg/kg/injection, schedule: Q01DX009 (ip), vehicle: Klucel (hydroxypropylcellulose) (HPC) 104 % of control and 107 % of control and 96 % of control | dose: 12.5 mg/kg/injection, schedule: Q01DX009 (ip), vehicle: Klucel (hydroxypropylcellulose) (HPC) 105 % of control and 109 % of control and 113 % of control | dose: 25.0 mg/kg/injection, schedule: Q01DX009 (ip), vehicle: Klucel (hydroxypropylcellulose) (HPC) 98 % of control and 101 % of control and 88 % of control

CCN1CC2c3cc(OC)c(OC)cc3CC(c3ccccc3)C2C1 (centres undefined)
inactive: [1] 120 % of control | [2] 120 % of control | [3] 100 % of control

CC(=O)SC12CCCN1C(=O)C1CCCN1C2=O (centres undefined)
inactive: [7] 100 % of control | [8] 111 % of control | [9] 117 % of control

C=CCNC(=S)N/N=C(C)/C=C/c1ccc(OC)cc1
inactive: [10] 100 % of control | [11] 96 % of control | [12] 88 % of control

COc1ccc(CN2CCc3cc(OC)c(O)cc3C2)cc1O
inactive: dose: 100.0 mg/kg/injection, schedule: Q01DX001 (ip), vehicle: saline with Tween-80 94 % of control | dose: 200.0 mg/kg/injection, schedule: Q01DX001 (ip), vehicle: saline with Tween-80 98 % of control

CN(C)C(=O)NC1CCC2CCCCC2C1 (centres undefined)
inactive: [13] 100 % of control | [14] 99 % of control | [15] 98 % of control

C=C1C(=O)C2CCN1CC2
inactive: [16] 105 % of control and 110 % of control and 113 % of control | [17] 113 % of control and 116 % of control (2×) | [18] 111 % of control and 116 % of control

S=c1[nH]nc2nc3c4ccccc4c4ccccc4c3nn12
inactive: dose: 50.0 mg/kg/injection, schedule: Q04DX003 (ip), vehicle: saline 95 % of control | dose: 100.0 mg/kg/injection, schedule: Q04DX003 (ip), vehicle: saline 95 % of control | dose: 200.0 mg/kg/injection, schedule: Q04DX003 (ip), vehicle: saline 93 % of control

CC(C)N(B1NCC(C)N1C(C)C)C(C)C (centres undefined)
inactive: [13] 101 % of control | [14] 102 % of control | [15] 100 % of control

O=C1CC2C3Nc4ccccc4C3CCN2C2=C1CC(OC(=O)c1ccccc1)CC2 (centres undefined)
inactive: dose: 100.0 mg/kg/injection, schedule: Q04DX003 (ip), vehicle: saline sonified 100 % of control | dose: 200.0 mg/kg/injection, schedule: Q04DX003 (ip), vehicle: saline sonified 100 % of control | dose: 400.0 mg/kg/injection, schedule: Q04DX003 (ip), vehicle: saline sonified 95 % of control

O=C(O)/C=C(\F)C(=O)O
inactive: dose: 12.5 mg/kg/injection, schedule: Q01DX005 (ip), vehicle: saline 97 % of control and 94 % of control | dose: 25.0 mg/kg/injection, schedule: Q01DX005 (ip), vehicle: saline 100 % of control and 96 % of control | [19] 100 % of control and 107 % of control | [20] 92 % of control and 97 % of control | [21] 97 % of control

Cc1ccc(S(=O)(=O)N(Cc2ccccc2)S(=O)(=O)c2ccc(C)cc2)cc1
inactive: [3] 110 % of control | dose: 50.0 mg/kg/injection, schedule: Q01DX009 (ip), vehicle: saline with Tween-80 118 % of control | dose: 100.0 mg/kg/injection, schedule: Q01DX009 (ip), vehicle: saline with Tween-80 101 % of control

O=NNc1ncc(Cl)cc1Cl
inactive: dose: 1.56 mg/kg/injection, schedule: Q01DX009 (ip), vehicle: water 106 % of control | dose: 3.12 mg/kg/injection, schedule: Q01DX009 (ip), vehicle: water 101 % of control | dose: 6.0 mg/kg/injection, schedule: Q01DX009 (ip), vehicle: water 118 % of control | dose: 6.25 mg/kg/injection, schedule: Q01DX009 (ip), vehicle: water 107 % of control | dose: 12.5 mg/kg/injection, schedule: Q01DX009 (ip), vehicle: water 111 % of control and 120 % of control | dose: 25.0 mg/kg/injection, schedule: Q01DX009 (ip), vehicle: water 120 % of control

Cc1nn(C)c(=S)[nH]c1=O
inactive: [10] 103 % of control | [16] 105 % of control | [11] 95 % of control | [17] 106 % of control | [12] 110 % of control | [18] 103 % of control

COC1(c2ccccc2)C2CCCCC2C2CCCCC21 (centres undefined)
inactive: [16] 100 % of control | [17] 98 % of control | [18] 100 % of control

CC(C)(C)NC(=O)OCc1c(COC(=O)NC(C)(C)C)c(-c2ccc(Cl)c(Cl)c2)n2c1CCC2
active: dose: 50.0 mg/kg/injection, schedule: Q01DX009 (ip), vehicle: distilled water + Tween-80 158 % of control and 164 % of control | dose: 100.0 mg/kg/injection, schedule: Q01DX009 (ip), vehicle: distilled water + Tween-80 164 % of control and 167 % of control | dose: 200.0 mg/kg/injection, schedule: Q01DX009 (ip), vehicle: distilled water + Tween-80 172 % of control
inactive: dose: 6.25 mg/kg/injection, schedule: Q01DX009 (ip), vehicle: distilled water + Tween-80 123 % of control | dose: 12.5 mg/kg/injection, schedule: Q01DX009 (ip), vehicle: distilled water + Tween-80 124 % of control | dose: 400.0 mg/kg/injection, schedule: Q01DX009 (ip), vehicle: distilled water + Tween-80 117 % of control

CC(=O)/C(=C\C=C\c1ccccc1)C(=O)CCN(C)C
inactive: [19] 98 % of control | [20] 109 % of control | [21] 118 % of control

CC(=O)/C=C1\N(C)c2ccccc2C1(C)C
inactive: [10] 104 % of control | [11] 107 % of control | [12] 100 % of control

C/[N+]([O-])=C1\C(C2COC(C)(C)O2)OC2OC(C)(C)OC12 (centres undefined)
inactive: [7] 97 % of control | [8] 107 % of control | [9] 105 % of control

O=c1c(CCl)c(-c2ccc([N+](=O)[O-])cc2)sc2ccccc12
inactive: [4] 100 % of control | [5] 98 % of control | [6] 92 % of control
